Patent US5296480A, “Angiotensin II receptor blocking 2,3,6-substituted 5,6,7,8-tetra-hydro-pyrido[4,3]pyrimidin-4(3H)-ones” (American Cyanamid Company, priority 1993, dated 1994)

Biological target: T1, Angiotensin II Receptor (Bos taurus, UniProt P25104)
T1 construct: added in 20 ul to wells before the introduction of tissue membranes; from tissue; host or cells: microsomal membranes of an unnamed tissue
T1 sequence (P25104 1-359): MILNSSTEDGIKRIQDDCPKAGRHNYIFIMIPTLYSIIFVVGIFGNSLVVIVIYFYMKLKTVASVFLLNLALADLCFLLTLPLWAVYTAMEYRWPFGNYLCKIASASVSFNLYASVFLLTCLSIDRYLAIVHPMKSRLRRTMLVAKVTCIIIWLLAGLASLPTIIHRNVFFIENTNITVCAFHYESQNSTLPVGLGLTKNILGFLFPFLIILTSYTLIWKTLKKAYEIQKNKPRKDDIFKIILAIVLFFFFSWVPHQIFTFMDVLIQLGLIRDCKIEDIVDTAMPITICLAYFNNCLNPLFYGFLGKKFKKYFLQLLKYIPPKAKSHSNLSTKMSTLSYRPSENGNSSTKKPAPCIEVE
Assay: Receptor Binding Assay: displacement of [^125 I](Sar^1,Ile^8)AngII from microsomal membranes
Conditions: pH 7.4, 60 min, room temperature
Description: Binding of [^125 I](Sar^1, Ile^8)AngII
The binding of [^125 I](Sar^1,Ile^8)AngII to microsomal membranes is initiated by the addition of reconstituted membranes (1:10 vols.) in freshly made 50.0 mMTris.HCl buffer, pH 7.4 containing 0.25% heat inactivated bovine serum albumin (BSA): 80 ul membrane protein (10 to 20 ug/assay) to wells already containing 100 ul of incubation buffer (as described above) and 20 ul [^125 I](Sar^1,Ile^8)AngII (Specific Activity, 2200 Ci/mmole). Non-specific binding is measured in the presence of 1.0 uM unlabeled (Sar^1,Ile^8 )AngII, added in 20 ul volume. Specific binding for [^125 I](Sar^1,Ile^8) AngII is greater than 90%. In competition studies, experimental compounds are diluted in dimethylsulfoxide (DMSO) and added in 20 ul to wells before the introduction of tissue membranes. This concentration of DMSO is found to have no negative effects on the binding of [^125 I](Sar^1,Ile^8) AngII to the membranes. Assays are performed in triplicate. […] Presoaking the filter sheet in 0.1% polyethylenemine in normal saline (PEI/Saline) greatly reduces the radioactivity retained by the filter blanks. […] The filters are removed from the filter grid and counted in a Parkard® Cobra Gamma Counter for 1 min. […] The binding data are analyzed by the non-linear interactive "LUNDON-1" program (LUNDON SOFTWARE Inc., Cleveland, Ohio U.S.A.). […]

IC50: 51 nM
SMILES: CCCCc1nc2c(c(=O)n1Cc1ccc(-c3ccccc3-c3nn[nH]n3)cc1)CN(C(=O)c1cccnc1)CC2 [Example 10]
